Data: US8541653B2, “Transformation of soybean” (BASF Plant Science GmbH, priority 2004, dated 2013)
Values joined by “and” are separate entries in the source; they are usually repeats but may differ in a detail not shown here. Identical values can stand only once. Blank lines part the entries; values can stand above or below the compound they belong to.

Legend:
Assay type in all cases: cell-based, soybean
[1] = tested on: axillary meristem explants; test: Regeneration capacity of axillary meristem explants on shoot initiation medium with BAP or TDZ; conditions: three weeks on shoot induction medium
Description: Cultivar Jack was used in both growing conditions tested. For in vitro donor material, sterile seeds were sown in a Plantcon™ (SIGMA) containing ½ MS salts and 2% sucrose pH 5.7. Seedlings were maintained at 25° C. 16/8 hours (light/dark) photoperiod, at a light intensity between 40 to 70 μM m^−2 s^−1. For greenhouse donor plants, seeds were sown on Metromix™ and grown in the greenhouse at 25° C. and 16 hour photoperiod. Greenhouse tissues were excised from the plant after 3 weeks. For greenhouse materials, the tissues were surface sterilized by immersion on a solution containing 5% Tween 20, followed by immersion in 70% (v/v) ethanol for 2 min then washed for 10 min in 3.5% (v/v) sodium hypochlorite solution and finally rinsed 3 times in sterile water. For in vitro donor material, no further sterilization was needed. Axillary meristem explants were placed basipetal into shoot initiation medium containing full strength MS salts and B5 Gamborg's vitamins amended with either 5 μM BAP or 2 mg/L (9.1 μM) TDZ. […]

[2] = tested on: explants from the cultivar L00106CN; test: GUS (+) foci on explants infected with AGL1 carrying three binary vectors, with L-cysteine; conditions: 400 mg/L (3.3 mM) L-cysteine, AGL1, 10 days post-infection
From the text: Seed germination, propagation, A. tumefaciens and axillary meristem explant preparation, and inoculations were done as previously described. In the first experiment, three A. tumefaciens strains, MP90, LBA4404 and AGL1, containing the binary vector pBPSMM192b (SEQ ID NO: 2) were compared. The infected propagated axillary meristems with the 3 A. tumefaciens strains were removed from the co-cultivation media after 3 days and GUS stained 10 days after inoculation.
In a separate experiment, GUS expression was evaluated on explants from the cultivar L00106CN 10-days after infection with the Agrobacterium strain AGL1 containing the binary vectors pBPSLM003 [LB-OCSt-bar-pMAS::pSuper-gusINT-NOSt-RB] (SEQ ID NO: 3), pBPSMM192a [LB-NOSt-gusINT-pSuper::AtAhast-AtAhas-pAtAhas-RB], or pBPSMM192b [LB-pSuper-gusINT-NOSt::AtAhast-AtAhas-pAtAhas-RB] (SEQ ID NO: 2). The backbone sequence of pBPSLM003 (SEQ ID NO: 3) is different of that in pBPSMM192a and b (SEQ ID NO: 2). The vector pBPSMM192a [LB-NOSt-gusINT-pSuper::AtAhast-AtAhas-pAtAhas-RB is distinguished from the vector pBPSMM192b (SEQ ID NO: 2) by the orientation of the pSuper-gusINT-NOSt expression cassette, which is in reverse orientation.
Explants were also evaluated for GUS expression on explants that had been co-cultivated with or without 400 mg/L (3.3 mM) L-cysteine in the solid co-cultivation medium. Twenty explants of each treatment were prepared for each repetition, a total of 2 repetitions in this experiment. GUS expression was scored 10-days-post initial infection.

[3] = tested on: propagated axillary meristems (cultivar Jack); test: GUS expression on propagated axillary meristem explants co-cultivated with L-cysteine; conditions: for frequency of propagated axillary meristems showing GUS(+) foci, Day3: AGL1
Description: Explant preparation: Seeds of variety Jack were surface sterilized by exposure to 70% ethanol for 6 min then immersed in a solution that contained 25% commercial bleach (NaOCl) and 0.1% Tween 20 and stirred at 200 rpm for 20 min. Seeds were rinsed 4 times in sterile water. Germination was carried out for 7 day in the dark at 25° C. The root and half of both cotyledons were removed from the seven-day-old seedlings and imbedded into propagation media on 150×20 mm Petri plates. Plates were sealed with Parafilm™ and placed in a culture room at 25° C. in the light for 2 to 5 weeks.
A. tumefaciens preparation and explant inoculation: A. tumefaciens strain AGL1 carrying the binary vector pBPSMM192b [LB-pSuper-gusINT-NOSt::AtAhast-AtAhas-pAtAhas-RB] (SEQ ID NO: 2) was used. A single colony was used to inoculate 25 to 30 ml LB media containing the appropriate antibiotics. Flasks were shaken on an orbit shaker (220 rpm) at 28° C. for 24 to 36 hours the OD600 reached 0.8 to 1.0. The Agrobacterium was pelleted by centrifugation at 3500 rpm for 8 to 10 min. The bacterial cells were re-suspended in liquid co-cultivation media containing 200 μM acetosyringone. Once cut, the propagated axillary meristem explants were immediately immersed in the A. tumefaciens suspension and remained for 30 minutes. Infected tissues were then transferred either to a vacuum chamber (25-30 mm Hg) for 5 min or placed directly on co-cultivation media. Before transferring onto cultivation medium, explants were blotted dry on sterile filter paper. The treatment tested was the addition of 0, 400, or 800 mg/L L-cysteine into the solid co-cultivation media (0, 3.3, or 6.6 mM, respectively). Co-cultivation was carried out in the dark for 3 days at 25° C. Vacuum infiltration results in an increase of transformation efficiency in protocols which were performed without cysteine-supplementation, but has no significant effect on protocols which were performed with cysteine-supplementation. GUS histochemical assay: Propagated axillary meristem explants infected with A. tumefaciens strain AGL1 were removed from the co-cultivation media after 3 days and stained with Gus overnight at 37° C. Remaining explants were transfer to shoot induction media containing 500 mg/L Timentin™. Gus histochemical assays were also performed at 10 and 45 days after inoculation. Results: After 3 days co-cultivation, the frequency of explants with GUS^+ foci increased from 2.5% to 45 and 63% by the addition of 800 (6.6 mM) or 400 mg/L (3.3 mM) L-cysteine, respectively, into the solid co-cultivation medium. […] The increases in GUS staining were also seen 10 and 45 days after co-cultivation (Table 10).

leaf explants [4] = test: Transient GUS expression on leaf explants after co-cultivation on CCM with thiol compounds (Example 8, experiment 2); conditions: for Entire: explant with GUS (+) foci: entire explant immersed; for Dip: explant with GUS (+) foci: petiole end dipped
Description: In both experiments, soybean cultivar (e.g., Jack) and the Agrobacterium tumefaciens strain AGL1 containing the binary plasmid pBPSEW008 (SEQ ID NO: 1) was used. The binary plasmid contains nosP-bar-nosT and pUBI-gusINT-nosT. The leaf explants and Agrobacterium were prepared as described earlier. The final Agrobacterium OD600 used for all experiments was 0.5. In the first experiment, two repetitions were made for which the following conditions were tested, • (1) addition of one of five thiol combinations added to CCM (no thiols, 100 mg/L L-cysteine (0.825 mM), 400 mg/L L-cysteine (3.3 mM), 1000 mg/L L-cysteine (8.25 mM), or 1 mM sodium thiolsulfate+1 mM DTT+ 1000 mg/L L-cysteine (8.25 mM)), • (2) 3, 4, or 5 day co-cultivation at 25° C., and • (3) incubation in the dark or under 100 μE/m2s cool white light under a 16 light/8 dark light regime. In the second experiment, explants were prepared and subjected to the above treatments except all leaf explants were co-cultivated for 5 days and either the entire ex-plant was immersed into the Agrobacterium/CCM suspension for 10 minutes or the cut petiole end of the explant dipped. Ten explants were entirely immersed per treatment and 4 explants were dipped per treatment. All explants were GUS-stained immediately after co-cultivation.

leaf explants [5] = test: Callus/shoot pad regeneration of leaf explants after co-cultivation on CCM with thiol compounds (Example 8, experiment 1); conditions: L-cysteine levels over 400 mg/L (3.3 mM) in CCM
Description: In both experiments, soybean cultivar (e.g., Jack) and the Agrobacterium tumefaciens strain AGL1 containing the binary plasmid pBPSEW008 (SEQ ID NO: 1) was used. The binary plasmid contains nosP-bar-nosT and pUBI-gusINT-nosT. The leaf explants and Agrobacterium were prepared as described earlier. The final Agrobacterium OD600 used for all experiments was 0.5. In the first experiment, two repetitions were made for which the following conditions were tested, • (1) addition of one of five thiol combinations added to CCM (no thiols, 100 mg/L L-cysteine (0.825 mM), 400 mg/L L-cysteine (3.3 mM), 1000 mg/L L-cysteine (8.25 mM), or 1 mM sodium thiolsulfate+1 mM DTT+ 1000 mg/L L-cysteine (8.25 mM)), • (2) 3, 4, or 5 day co-cultivation at 25° C., and • (3) incubation in the dark or under 100 μE/m2s cool white light under a 16 light/8 dark light regime. Ten explants were prepared for each treatment. The explants were grown on SIM medium for 2 weeks after which time the percent of explants developing a callus/shoot pad were recorded.

[6] = 100 mg/l Cys in CCM, Light, 5 days co-cultivation

Structure (SMILES): c1ccc(CNc2ncnc3nc[nH]c23)cc1 [BAP, 6-benzylaminopurine]
Mean # of shoots per explant ([1]; Greenhouse plant, BAP 5 uM): 0.20
Mean # of shoots per explant ([1]; In vitro plant, BAP 5 uM): 1.97

effect on explant tissue (leaf explants [4]; 1000 mg/L L-cysteine in CCM): significant bleaching
Structure (SMILES): N[C@@H](CS)C(=O)O [L-cysteine]
frequency of GUS (+) foci on explants, pBPSLM003 [2]: 85%
frequency of GUS (+) foci on explants, pBPSMM192a [2]: 77%
frequency of GUS (+) foci on explants, pBPSMM192b [2]: 95%
frequency of propagated axillary meristems showing GUS(+) foci, Day 10 ([3]; 400 mg/L L-cysteine): 90.0%
frequency of propagated axillary meristems showing GUS(+) foci, Day 45 ([3]; 400 mg/L L-cysteine): 22.5%
frequency of propagated axillary meristems showing GUS(+) foci, Day3 ([3]; 400 mg/L L-cysteine in solid co-cultivation medium): 63% and 65.0%
frequency of propagated axillary meristems showing GUS(+) foci, Day 10 ([3]; 800 mg/L L-cysteine): 72.5%
frequency of propagated axillary meristems showing GUS(+) foci, Day 45 ([3]; 800 mg/L L-cysteine): 7.5%
frequency of propagated axillary meristems showing GUS(+) foci, Day3 ([3]; 800 mg/L L-cysteine in solid co-cultivation medium): 45% and 47.5%
browning and tissue necrosis of explants ([3]; compared with explants not exposed to L-cysteine): less browning and tissue necrosis
Entire: explant with GUS (+) foci (leaf explants [4]; [6]): 6/10
Dip: explant with GUS (+) foci (leaf explants [4]; [6]): 0/4
Entire: explant with GUS (+) foci (leaf explants [4]; 100 mg/l Cys, Dark): 7/10
Dip: explant with GUS (+) foci (leaf explants [4]; 100 mg/l Cys, Dark): 0/4
Entire: explant with GUS (+) foci (leaf explants [4]; 400 mg/l Cys, Dark): 9/10
Dip: explant with GUS (+) foci (leaf explants [4]; 400 mg/l Cys, Dark): 3/4
Entire: explant with GUS (+) foci (leaf explants [4]; 400 mg/l Cys, Light): 9/10
Dip: explant with GUS (+) foci (leaf explants [4]; 400 mg/l Cys, Light): 1/4
Entire: explant with GUS (+) foci (leaf explants [4]; 1000 mg/l Cys, Dark): 3/10
Dip: explant with GUS (+) foci (leaf explants [4]; 1000 mg/l Cys, Dark): 0/4
Entire: explant with GUS (+) foci (leaf explants [4]; 1000 mg/l Cys, Light): 3/10
Dip: explant with GUS (+) foci (leaf explants [4]; 1000 mg/l Cys, Light): 1/4
effect on explant tissue (leaf explants [5]): tissue death

Structure (SMILES): O=C(Nc1ccccc1)Nc1cnns1 [TDZ]
Mean # of shoots per explant ([1]; Greenhouse plant, TDZ 9.1 μM): 0.32
Mean # of shoots per explant ([1]; In vitro plant, TDZ 9.1 μM): 0.74
